± gives the expanded uncertainty stated by the source.
Conditions: 101.33 kPa, Liquid, Vibrating tube method

Work on `O` [water] yielded a mass density (323.15 K) of 988.035 ± 1 kg/m3, a mass density (328.15 K) of 985.693 ± 1 kg/m3 and a mass density (333.15 K) of 983.196 ± 0.98 kg/m3. It also gave a mass density (338.15 K) of 980.551 ± 0.98 kg/m3 and a mass density (343.15 K) of 977.765 ± 0.98 kg/m3.
